Where “and” joins values, the source holds several entries; their conditions need not be identical. Equal entries are not always repeated. Where two headings read alike, the source gives them in different places.
Key:
BF F710Y/D598A [1] = target: T1, BF F710Y/D598A (Geobacillus stearothermophilus, UniProt P52026, A338V/A406G/A407V/A456E/A482S/A505K/A513T/A699P/A741E/D309E/D325E/D540E/D696E/D751E/E459R/E695D/F710Y/G324E/G408D/G483S/G600K/G678D/H329D/H417K/H567Y/H573N/H596R/H691Q/I672M/I841M/K356Q/L337V/L358V/L461F/M462L/M605I/N487E/P645S/P870S/Q512G/Q748R/R341H/R388C/R516Q/R816K/R823H/S306R/S424P/S812N/T369S/T436A/T442V/T475V/T491A/T508A/T536V/T728S/T790M/V391S/V413A/V537I/V598A/V619T/V813A); type: biochemical; parameters: burst activity kpol: unit not given here; settings: for pre-steady-state rate constant for nCTP addition: 3′-amino terminal primer; for Acceleration of kinetics over Ca2+: nCTP addition
T1 sequence (P52026 other isoform, or with tags, fused parts or gaps with the stated changes): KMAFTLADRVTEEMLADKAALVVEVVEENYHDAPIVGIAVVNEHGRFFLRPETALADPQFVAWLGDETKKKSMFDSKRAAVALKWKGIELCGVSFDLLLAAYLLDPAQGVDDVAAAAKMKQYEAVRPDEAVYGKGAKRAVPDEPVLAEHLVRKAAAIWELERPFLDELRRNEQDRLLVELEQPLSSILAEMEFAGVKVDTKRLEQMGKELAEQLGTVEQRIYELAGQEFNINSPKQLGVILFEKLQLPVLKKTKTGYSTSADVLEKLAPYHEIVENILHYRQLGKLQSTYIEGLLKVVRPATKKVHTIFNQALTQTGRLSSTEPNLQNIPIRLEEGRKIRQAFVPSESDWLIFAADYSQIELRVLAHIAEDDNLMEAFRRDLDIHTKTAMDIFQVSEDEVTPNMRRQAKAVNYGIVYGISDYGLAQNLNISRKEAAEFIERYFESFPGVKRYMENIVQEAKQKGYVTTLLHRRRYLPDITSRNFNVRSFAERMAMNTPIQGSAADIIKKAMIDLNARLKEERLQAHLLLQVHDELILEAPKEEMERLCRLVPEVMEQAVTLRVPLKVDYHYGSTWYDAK

BF F710Y/D598A [2] = target: T1, BF F710Y/D598A; type: biochemical; settings: for Effect on NP-DNA polymerization with all four nNTPs on mixed sequence templates: vs. Ca2+
BF = BF (Geobacillus stearothermophilus, UniProt P52026, F710Y); assay: Extension of a native DNA 3′-OH primer with nCTP and trivalent cofactors; type: biochemical; settings: for pre-steady-state rate constant for extension of a native DNA 3′-OH terminus with nCTP: 5 mM metal, stoichiometric citrate, 55° C., mean±s.d.
BF, sequence (P52026 other isoform, or with tags, fused parts or gaps with the stated changes): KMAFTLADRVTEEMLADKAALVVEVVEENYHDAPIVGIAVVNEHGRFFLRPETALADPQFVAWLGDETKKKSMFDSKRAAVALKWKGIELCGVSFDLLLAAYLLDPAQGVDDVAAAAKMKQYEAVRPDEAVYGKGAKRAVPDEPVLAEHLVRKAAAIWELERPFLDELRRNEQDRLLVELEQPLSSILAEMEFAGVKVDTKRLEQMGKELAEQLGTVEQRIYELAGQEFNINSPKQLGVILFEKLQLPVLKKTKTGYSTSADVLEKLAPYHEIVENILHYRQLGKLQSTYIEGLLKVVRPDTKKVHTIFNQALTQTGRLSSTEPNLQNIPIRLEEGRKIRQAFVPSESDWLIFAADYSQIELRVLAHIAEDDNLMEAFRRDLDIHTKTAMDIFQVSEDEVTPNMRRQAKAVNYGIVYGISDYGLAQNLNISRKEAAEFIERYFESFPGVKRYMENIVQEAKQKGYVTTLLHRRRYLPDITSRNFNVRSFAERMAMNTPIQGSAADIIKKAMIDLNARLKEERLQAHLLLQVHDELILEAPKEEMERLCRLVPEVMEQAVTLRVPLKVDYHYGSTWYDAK

wild-type BF = wild-type BF (Geobacillus stearothermophilus, UniProt P52026); type: biochemical, Bacillus stearothermophilus; settings: for Kinetics of 3′-amino primer extension vs. absence of added divalent metals: 5 mM metal ion, 55° C., pH 8.8; for kpol of 3′-amino primer extension by wild-type BF: varying metal chloride concentration; for Kd: in the presence of 1 mM dCTP, read-out: Kd,app (apparent dissociation constant of metal ion)
wild-type BF, sequence (P52026 other isoform, or with tags, fused parts or gaps with the stated changes): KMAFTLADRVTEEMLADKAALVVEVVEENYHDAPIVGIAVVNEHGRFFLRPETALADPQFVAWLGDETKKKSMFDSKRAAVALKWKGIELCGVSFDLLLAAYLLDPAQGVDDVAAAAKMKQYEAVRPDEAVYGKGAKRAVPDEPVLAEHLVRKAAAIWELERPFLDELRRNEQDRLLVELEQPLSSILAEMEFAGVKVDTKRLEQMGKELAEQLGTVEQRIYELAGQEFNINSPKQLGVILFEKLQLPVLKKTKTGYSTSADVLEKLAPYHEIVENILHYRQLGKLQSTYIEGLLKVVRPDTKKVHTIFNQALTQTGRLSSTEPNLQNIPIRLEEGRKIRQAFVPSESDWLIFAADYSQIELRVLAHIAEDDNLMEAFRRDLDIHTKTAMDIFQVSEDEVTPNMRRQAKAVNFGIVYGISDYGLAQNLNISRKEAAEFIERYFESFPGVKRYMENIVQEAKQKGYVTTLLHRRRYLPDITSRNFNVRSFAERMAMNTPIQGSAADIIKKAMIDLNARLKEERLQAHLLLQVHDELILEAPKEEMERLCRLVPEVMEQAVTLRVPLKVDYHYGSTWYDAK
Method: Primer extension assays. Except where indicated, all extension reactions were performed with 1 μM fluorescein-labeled primer, 1.5 μM template, and ˜1.1 μM purified His6-tagged protein at 55° C. in a reaction buffer composed of 40 mM Tris-HCl, pH 8.8, 1 mM DTT, and a divalent cation as specified, typically 10 mM CaCl2. Reaction mixtures were equilibrated at the indicated reaction temperature for 1 min and initiated by addition of substrate. Progress was monitored by sampling 1 μL from the reaction manually quenched into 24 μL of chilled 90% formamide, 10 mM EDTA. Quenched samples were denatured at 90° C. for 1 min and cooled to room temperature prior to separation by denaturing polyacrylamide gel electrophoresis on 20% TBE-urea gels. To maintain strand separation for long extension products, as in FIGS. 3F-3H, an unlabeled DNA oligonucleotide complementary to the template was added to the quenching buffer (˜2 μM) prior to denaturation. Typically, 3 or 4 μL of quenched sample was loaded per lane for gels of 0.75-mm thickness. Bands were visualized with a Typhoon laser scanning imager (GE Amersham) and quantified with the manufacturer's software. For acid digestion of extended products, a reaction sample was diluted with 2.5 volumes of 1% acetic acid, 10 mM EDTA in formamide and digested at 75° C. for 45 min prior to gel separation.

BF F710Y [3] = target: T2, BF F710Y (Geobacillus stearothermophilus, UniProt P52026, F710Y); assay: Elemental thio effect on pre-steady-state NP synthesis; type: biochemical; settings: 45° C.
BF F710Y [4] = target: T2, BF F710Y; assay: Solvent deuterium kinetic isotope effect (SDKIE) of 3′-amino primer extension; type: biochemical; settings: 1 mM dCTP, 10 mM CaCl2, varying mole fraction D2O

With `[Y+3]` [Y^3+] the “Effect on single-nucleotide 3′-amino primer extension” value (BF F710Y/D598A [1]; vs. Ca2+) was “significantly improved” and the “Effect on NP-DNA polymerization with all four nNTPs on mixed sequence templates” value (“Effect on NP-DNA polymerization” for short) (BF F710Y/D598A [2]) was “significantly improved”.

`[Lu+3]` [Lu^3+] was tested, and the burst activity kpol (BF F710Y/D598A [1]; 55° C., nCTP, mean±s.e.m) was 6.9±0.7, the “Effect on single-nucleotide 3′-amino primer extension” value (BF F710Y/D598A [1]; vs. Ca2+) was “significantly improved” and the “pre-steady-state rate constant for extension of a native DNA 3′-OH terminus with nCTP” value (BF) was 8±1×10^−3 min^−1. For the same compound, the “Multiple turnover activity in long primer extensions relative to Sc3+” value (BF F710Y/D598A [2]; 55° C.) was “far weaker multiple turnover activity” and the “Effect on NP-DNA polymerization” value (BF F710Y/D598A [2]) was “significantly improved”.

With `[Ba+2]` [Ba^2+] the “Kinetics of 3′-amino primer extension vs. absence of added divalent metals” value (wild-type BF) was “faster”.

For `Nc1ccn([C@H]2C[C@H](O)[C@@H](COP(O)(=S)OP(=O)(O)OP(=O)(O)O)O2)c(=O)n1` (stereo partly drawn) [Rp-dCTPαS, 2′-deoxycytidine 5′-O-(1-thiotriphosphate), reference compound], the “Additional thio effect for Rp vs. Sp substrate” value (BF F710Y [3]; Ca2+ activated) was 4 fold.

In the case of `Nc1ccn([C@H]2C[C@H](O)[C@@H](COP(O)(=S)OP(=O)(O)OP(=O)(O)O)O2)c(=O)n1` (stereo partly drawn) [Sp-dCTPαS, 2′-deoxycytidine 5′-O-(1-thiotriphosphate), reference compound], the “thio effect kO/kS” value (BF F710Y [3]; Ca2+ activated, dCTP vs. Sp-dCTPαS, mean±s.d.) is reported as 10.6±0.5.

`[Sr+2]` [Sr^2+] was tested, and the “Kinetics of 3′-amino primer extension vs. absence of added divalent metals” value (wild-type BF) was “faster”.

In the case of `NCCCNCCCCNCCCN` [spermine], the “Activation of long NP-DNA synthesis by polyamine” value (BF F710Y/D598A [2]) is reported as “optimal at low micromolar concentrations”.

With `[Sc+3]` [Sc^3+] the “Specificity for the Sp over Rp substrates” value (BF F710Y [3]; Sc3+ activated) was 66 fold, the thio effect (BF F710Y [3]; Sc3+ activated, mean±s.d.) was 0.58±0.07 and the “pre-steady-state rate constant for nCTP addition” value (BF F710Y/D598A [1]; 55° C.) was 7.1 ± 0.5 min⁻¹ and 6.8 ± 0.3 min⁻¹. For the same compound, the “Acceleration of kinetics over Ca2+” value (BF F710Y/D598A [1]; 55° C.) was ~100 fold, the “Acceleration of kinetics over Ca2+” value (BF F710Y/D598A [1]; 55° C., listed as Scandium(III)) was > 100 fold and the “Effect on single-nucleotide 3′-amino primer extension” value (BF F710Y/D598A [1]; vs. Ca2+) was “significantly improved”. For the same compound, the Stabilization effect (BF F710Y/D598A [1]; vs. Ca2+) was “ca. −3 kcal/mol”, the “pre-steady-state rate constant for extension of a native DNA 3′-OH terminus with nCTP” value (BF) was 5.5±0.6×10^−3 min^−1 and the “3′-OH extension compared with 3′-NH2 extension” value (BF; nCTP) was “at least three orders of magnitude slower”. The “Length of NP-DNA strands yielded” value (BF F710Y/D598A [2]) was ≥ 100 nts, the “Overall NP polymerase reaction time to yield full length products” value (BF F710Y/D598A [2]; Sc3+ and spermine, 55° C.) was 0.9-1.3 min/nt and the “Effect on NP-DNA polymerization” value (BF F710Y/D598A [2]) was “significantly improved”. The “Full length products on mixed sequence DNA templates” value (BF F710Y/D598A [2]; with spermine, 55° C.) was “up to +71 nt”, the “Time to synthesize full length products” value (BF F710Y/D598A [2]; with spermine, 55° C., +71 or +100 nt templates) was 1 to 2 h and the “Full length products on mixed sequence DNA templates, with additional enzyme” value (BF F710Y/D598A [2]; with spermine, additional enzyme, 55° C.) was “up to +100 nt”.

For `[Ca+2]` [Ca^2+], the “pre-steady-state rate constant for nCTP addition” value (BF F710Y/D598A [1]; 55° C.) was 0.069 min⁻¹, the “Maximum reaction velocity, saturating Ca2+ vs. Mg2+” value (wild-type BF; 1 mM dCTP) was ~5 fold and the “kpol of 3′-amino primer extension by wild-type BF” value (wild-type BF; 1 mM dCTP) was 0.075 min⁻¹. For the same compound, the “Kinetics of 3′-amino primer extension vs. absence of added divalent metals” value (wild-type BF) was “faster”, the Kd (wild-type BF) was 2100 µM and the “Kinetic effect among divalent cofactors” value (wild-type BF; pH 8.8 and 55° C.) was “largest kinetic effect”. It also gave a Maximum reaction velocity (wild-type BF; saturating metal ion) of ~4.5 nt/hr and an SDKIE (BF F710Y [4]) of 1.16.

In the case of `[Mg+2]` [Mg^2+], the “kpol of 3′-amino primer extension by wild-type BF” value (wild-type BF; 1 mM dCTP) is reported as 0.015 min⁻¹, the “Kinetics of 3′-amino primer extension vs. absence of added divalent metals” value (wild-type BF) is reported as “faster” and the Kd (wild-type BF) is reported as 1300 µM. The “Effect of added Mg2+ on NP-DNA synthesis activated by Sc3+” value (BF F710Y/D598A [2]; low millimolar range) was “inhibited”.

Reference: patent publication US20240309418A1, “ENZYMATIC METHODS AND COMPOSITIONS FOR POLYMERIZATION OF PHOSPHORAMIDATE AND THIOPHOSPHORAMIDATE-LINKED DNA” (The General Hospital Corporation, priority 2023, published 2024)
